Data as given in the supplement of paper PMC11061612.

What was measured:
[1] = tested on: SW626 (Colorectal Carcinoma); test: combination Emax (second highest fraction inhibited in the dose matrix, 72 h); higher = more inhibition; extreme values may be limits of the assay
Procedure, shortened: (§1)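 Bliss excess equals the observed combination effect minus the expected value EA + EB − EA·EB, where EA and EB are the effects of each agent alone. Combination Emax is the second-highest inhibition within the matrix. Inhibition was scaled from CellTiter-Glo 2.0 luminescence, with 0 set by vehicle wells and 1 by blank wells, after 72 hours of two-drug dosing of cells plated in 1536-well plates.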

[2] = tested on: LU-139 (Small Cell Lung Carcinoma); test: as above
Procedure, shortened: as §1

[3] = tested on: K5 (Thyroid Gland Carcinoma); test: as above
Procedure, shortened: as §1

[4] = tested on: PCI-30 (Head and Neck Carcinoma); test: as above
Procedure, shortened: as §1

[5] = tested on: SIMA (Neuroblastoma); test: as above
Procedure, shortened: as §1

[6] = tested on: NCI-H2461 (Mesothelioma); test: as above
Procedure, shortened: as §1

[7] = tested on: CAL-54 (Kidney Carcinoma); test: as above
Procedure, shortened: as §1

[8] = tested on: NCI-H2795 (Mesothelioma); test: as above
Procedure, shortened: as §1

[9] = tested on: CTB-1 (B-Cell Non-Hodgkin's Lymphoma); test: as above
Procedure, shortened: as §1

[10] = tested on: SIMA (Neuroblastoma); test: Bliss excess, mean over the matrix (fraction); higher = more synergy
Procedure, shortened: as §1

Compound | combination Emax [1] | combination Emax [2] | combination Emax [3] | combination Emax [4] | combination Emax [5] | combination Emax [6] | combination Emax [7] | combination Emax [8] | combination Emax [9] | Bliss excess [10]
CN(CCO)CC[C@H](CSc1ccccc1)Nc1ccc(S(=O)(=O)NC(=O)c2ccc(N3CCC([C@@H](O)c4ccccc4-c4ccc(Cl)cc4)CC3)cc2)cc1S(=O)(=O)C(F)(F)F [AZD4320] + C1CN(CCC1(C(=O)N[C@@H](CCO)C2=CC=C(C=C2)Cl)N)C3=NC=NC4=C3C=CN4 [Capivasertib] (first compound max 1 µM, 7x7, partner max 3 µM) | 0.643 | 0.912 | 0.499 | 0.191 | 0.814 | 0.429 | 0.338 | 0.271 | 0.295 | -0.0435
CN(CCO)CC[C@H](CSc1ccccc1)Nc1ccc(S(=O)(=O)NC(=O)c2ccc(N3CCC([C@@H](O)c4ccccc4-c4ccc(Cl)cc4)CC3)cc2)cc1S(=O)(=O)C(F)(F)F [AZD4320] + C=CCn1c(=O)c2cnc(Nc3ccc(N4CCN(C)CC4)cc3)nc2n1-c1cccc(C(C)(C)O)n1 [AZD1775] (first compound max 1 µM, partner max 1 µM) | 0.748 | 0.927 | 0.485 | 0.323 | 1 | 0.782 | 0.827 | 0.53 | 0.862 | -0.0156
CN(CCO)CC[C@H](CSc1ccccc1)Nc1ccc(S(=O)(=O)NC(=O)c2ccc(N3CCC([C@@H](O)c4ccccc4-c4ccc(Cl)cc4)CC3)cc2)cc1S(=O)(=O)C(F)(F)F [AZD4320] + CCN(CCO)CCCOc1ccc2c(Nc3cc(CC(=O)Nc4cccc(F)c4)[nH]n3)ncnc2c1 [AZD2811] (first compound max 1 µM, 7x7, partner max 1 µM) | 0.825 | 0.914 | 0.33 | 0.284 | 0.971 | 0.174 | 0.163 | 0.284 | 0.503 | 0.0814
CN(CCO)CC[C@H](CSc1ccccc1)Nc1ccc(S(=O)(=O)NC(=O)c2ccc(N3CCC([C@@H](O)c4ccccc4-c4ccc(Cl)cc4)CC3)cc2)cc1S(=O)(=O)C(F)(F)F [AZD4320] + CN(C)CCCOc1ccc(-c2ccc3ncc4c(c3c2)n(C2CCOCC2)c(=O)n4C)cn1 [AZD0156] (first compound max 1 µM, 7x7, partner max 1 µM) | 0.573 | 0.923 | 0.289 | 0.158 | 0.848 | 0.259 | 0.163 | 0.417 | 0.206 | -0.14
CN(CCO)CC[C@H](CSc1ccccc1)Nc1ccc(S(=O)(=O)NC(=O)c2ccc(N3CCC([C@@H](O)c4ccccc4-c4ccc(Cl)cc4)CC3)cc2)cc1S(=O)(=O)C(F)(F)F [AZD4320] + C[C@@H]1COCCN1C2=NC(=NC(=C2)C3(CC3)[S@](=N)(=O)C)C4=C5C=CNC5=NC=C4 [AZD6738] (first compound max 1 µM, 7x7, partner max 10 µM) | 0.869 | 0.929 | 0.702 | 0.653 | 1 | 0.838 | 0.835 | 0.844 | 0.768 | 0.0068
CN(CCO)CC[C@H](CSc1ccccc1)Nc1ccc(S(=O)(=O)NC(=O)c2ccc(N3CCC([C@@H](O)c4ccccc4-c4ccc(Cl)cc4)CC3)cc2)cc1S(=O)(=O)C(F)(F)F [AZD4320] + Cc1cc2ncnn2cc1Nc1ncc2c(n1)n(C1CCOCC1)c(=O)n2C [AZD7648] (first compound max 1 µM, 7x7, partner max 10 µM) | 0.577 | 0.937 | 0.392 | 0.178 | 0.862 | 0.293 | 0.372 | 0.43 | 0.317 | 0.0256
Cc1c2c(nn1C)CSCc1cc(n(C)n1)CSc1cc(c3ccccc3c1)OCCCc1c(C(=O)O)n(C)c3c-2c(Cl)ccc13 [AZD5991] + C1CN(CCC1(C(=O)N[C@@H](CCO)C2=CC=C(C=C2)Cl)N)C3=NC=NC4=C3C=CN4 [Capivasertib] (first compound max 1 µM, 7x7, partner max 3 µM) | 0.25 | 0.268 | 0.478 | 0.237 | 0.176 | 0.464 | 0.351 | 0.85 | 0.42 | -0.0195
Cc1c2c(nn1C)CSCc1cc(n(C)n1)CSc1cc(c3ccccc3c1)OCCCc1c(C(=O)O)n(C)c3c-2c(Cl)ccc13 [AZD5991] + C=CCn1c(=O)c2cnc(Nc3ccc(N4CCN(C)CC4)cc3)nc2n1-c1cccc(C(C)(C)O)n1 [AZD1775] (first compound max 1 µM, partner max 1 µM) | 0.559 | 0.555 | 0.482 | 0.317 | 0.973 | 0.712 | 0.702 | 0.881 | 0.916 | -0.0713
